In patent publication US12404295B2, “(Hetero)aryl-methyl-thio-beta-D-galactopyranoside derivatives” (Idorsia Pharmaceuticals Ltd, priority 2019, dated 2025) one finds IC50 data, which are given here for 15 compounds.

One test deals with human Gal-3 (hGal-3) (Homo sapiens (Human), UniProt P17931). Nature of the test: competitive binding assay: biotinylated hGal-3 binding to microplate-adsorbed asialofetuin (ASF). Here is the method: If not explicitly mentioned otherwise, the inhibition data refer to the binding of biotinylated human Gal-3 (hGal-3).
(§1) Evaluation of Compound Inhibitory Activity (IC50)
The inhibitory activity of compounds is determined in competitive binding assays.
Briefly, compounds are serially diluted in DMSO (working dilutions).
(§2) Plates are incubated for 3 hours at 4° C., then washed with cold assay buffer (3×50 uL), incubated for 1 hour with 25 μL/well of a streptavidin-peroxidase solution (diluted in assay buffer to 80 ng/mL) at 4° C., followed by further washing steps with assay buffer (3×50 uL). Finally, 25 μL/well of ABTS substrate is added.
(§3) The calculated IC50 values may fluctuate depending on the daily assay performance. Fluctuations of this kind are known to those skilled in the art. IC50 values from several measurements are given as mean values.

The target in the next test is human Gal-1 (hGal-1) (Homo sapiens (Human), UniProt P09382). Nature of the test: competitive binding assay: biotinylated hGal-1 binding to microplate-adsorbed asialofetuin (ASF). The following applies: Table 15; read-out: IC50 (Galectin-1 inhibition). Here is the method:
Inhibition data of the epimers R and S of selected Examples are also listed.
as §1
The inhibitory activity of compounds is determined in competitive binding assays. This spectrophotometric assay measures the binding of biotinylated human Gal-3 (hGal-3) or human Gal-1 (hGal-1), respectively, to a microplate-adsorbed glycoprotein, asialofetuin (ASF) (Proc Natl Acad Sci USA. 2013 Mar. 26; 110(13):5052-7.).
Briefly, compounds are serially diluted in DMSO (working dilutions). ASF-coated 384 well plates are supplemented with 22.8 μL/well of biotinylated hGal-3 or hGal-1 in assay buffer (i.e. 300-1000 ng/mL biotinylated hGal-3 or hGal-1) to which 1.2 μL of compound working dilutions are added and mixed.
as §2, §3

Setting [1] is: Table 10, 2-OMe-Gal inhibitors, read-out: IC50 (Gal-3 inhibition).
Where [2] appears, read: Table 5, read-out: IC50 (Gal-3 inhibition).
Setting [3] is: Gal-3 inhibition, binding of biotinylated hGal-3 to ASF, mean values, read-out: IC50.
Where [4] appears, read: Table 11, read-out: IC50 (Gal-3 inhibition).

Where two headings read alike, the source gives them in different places.

Sequence of human Gal-3 (hGal-3) (P17931 whole entry): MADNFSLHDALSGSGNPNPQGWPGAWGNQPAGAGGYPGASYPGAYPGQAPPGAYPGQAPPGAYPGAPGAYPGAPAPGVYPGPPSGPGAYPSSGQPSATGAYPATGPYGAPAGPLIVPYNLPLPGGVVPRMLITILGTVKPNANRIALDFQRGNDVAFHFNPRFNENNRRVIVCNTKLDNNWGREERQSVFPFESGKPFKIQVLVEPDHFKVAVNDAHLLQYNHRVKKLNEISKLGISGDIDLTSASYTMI
Sequence of human Gal-1 (hGal-1) (P09382 whole entry): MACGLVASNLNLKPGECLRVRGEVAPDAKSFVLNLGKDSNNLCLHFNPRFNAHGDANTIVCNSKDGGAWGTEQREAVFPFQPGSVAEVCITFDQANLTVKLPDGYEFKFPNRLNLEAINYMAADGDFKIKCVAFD

On to `CCc1onc([C@@H](S[C@@H]2O[C@H](CO)[C@H](O)[C@H](n3cc(-c4cc(F)c(F)c(F)c4)nn3)[C@H]2OC)C2(O)CCC(F)(F)CC2)c1C` [Example 2.44.140R.I., (2R,3R,4S,5R,6S)-6-(((R)-(4,4-Difluoro-1-hydroxycyclohexyl)(5-ethyl-4-methylisoxazol-3-yl)methyl)thio)-2-(hydroxymethyl)-5-methoxy-4-(4-(3,4,5-trifluorophenyl)-1H-1,2,3-triazol-1-yl)tetrahydro-2H-pyran-3-ol], for which the IC50 (usually the concentration that gives 50% inhibition) was 120 nM on human Gal-3 (hGal-3) (setting [1]) and 700 nM at human Gal-1 (hGal-1).

For “(2S,3R,4S,5R,6R)-2-(((4-Hydroxy-2,2-dimethyltetrahydro-2H-pyran-4-yl)(2-(trifluoromethyl)phenyl)methyl)thio)-6-(hydroxymethyl)-4-(4-(3,4,5-trifluorophenyl)-1H-1,2,3-triazol-1-yl)tetrahydro-2H-pyran-3,5-diol [Example 2.43.102.]”, the IC50 at human Gal-3 (hGal-3) (setting [2]) is 120 nM; at human Gal-1 (hGal-1) it was 1900 nM.

Consider `OC[C@H]1O[C@@H](S[C@@H](c2ncccc2C(F)(F)F)C2(O)CCCC2)[C@H](O)[C@@H](n2cc(-c3cc(F)c(F)c(F)c3)nn2)[C@H]1O` [Example 2.38.125S., (2S,3R,4S,5R,6R)-2-(((S)-(1-Hydroxycyclopentyl)(3-(trifluoromethyl)pyridin-2-yl)methyl)thio)-6-(hydroxymethyl)-4-(4-(3,4,5-trifluorophenyl)-1H-1,2,3-triazol-1-yl)tetrahydro-2H-pyran-3,5-diol], for which the IC50 at human Gal-3 (hGal-3) (setting [3]) came to 5620 nM; on human Gal-1 (hGal-1), 15100 nM.

With `CO[C@@H]1[C@@H](n2cc(-c3cc(F)c(F)c(F)c3)nn2)[C@@H](O)[C@@H](CO)O[C@H]1S[C@@H](c1nccc(Cl)c1Cl)C1(O)CCC(F)(F)CC1` [Example 2.44.143S.I., (2R,3R,4S,5R,6S)-6-(((S)-(3,4-Dichloropyridin-2-yl)(4,4-difluoro-1-hydroxycyclohexyl)methyl)thio)-2-(hydroxymethyl)-5-methoxy-4-(4-(3,4,5-trifluorophenyl)-1H-1,2,3-triazol-1-yl)tetrahydro-2H-pyran-3-ol], the IC50 on human Gal-3 (hGal-3) (setting [4]) was 9970 nM; on human Gal-1 (hGal-1), 9770 nM.

On to `CC(C)c1ccccc1[C@@H](S[C@@H]1O[C@H](CO)[C@H](O)[C@H](n2cc(-c3cc(F)c(F)c(F)c3)nn2)[C@H]1O)C1(O)CCC(F)(F)CC1` [Example 2.44.105R., (2S,3R,4S,5R,6R)-2-(((R)-(4,4-Difluoro-1-hydroxycyclohexyl)(2-isopropylphenyl)methyl)thio)-6-(hydroxymethyl)-4-(4-(3,4,5-trifluorophenyl)-1H-1,2,3-triazol-1-yl)tetrahydro-2H-pyran-3,5-diol [1,3-di-deoxy-1-((4,4-difluoro-1-hydroxy-cyclohexan-1-yl)-(2-(-isopropyl)phenyl)methyl-(R)-thio)-3-[4-(3,4,5-trifluorophenyl)-1H-1,2,3-triazol-1-yl]-β-D-galactopyranoside]], for which the IC50 was found to be 60 nM on human Gal-3 (hGal-3) (setting [2]) and 40 nM on human Gal-1 (hGal-1).

Turning to `CO[C@@H]1[C@@H](n2cc(-c3cc(F)c(F)c(F)c3)nn2)[C@@H](O)[C@@H](CO)O[C@H]1S[C@@H](c1nc(C)ccc1Cl)C1(O)CCC(F)(F)CC1` [Example 2.44.148S.I., (2R,3R,4S,5R,6S)-6-(((S)-(3-Chloro-6-methylpyridin-2-yl)(4,4-difluoro-1-hydroxycyclohexyl)methyl)thio)-2-(hydroxymethyl)-5-methoxy-4-(4-(3,4,5-trifluorophenyl)-1H-1,2,3-triazol-1-yl)tetrahydro-2H-pyran-3-ol], the IC50 was found to be 6990 nM at human Gal-3 (hGal-3) (setting [4]) and 31000 nM at human Gal-1 (hGal-1).

As to `CCn1nnc(C)c1[C@@H](S[C@@H]1O[C@H](CO)[C@H](O)[C@H](n2cc(-c3cc(F)c(F)c(F)c3)nn2)[C@H]1OC)C1(O)CCC(F)(F)CC1` [Example 2.44.138R.I., (2R,3R,4S,5R,6S)-6-(((R)-(4,4-Difluoro-1-hydroxycyclohexyl)(1-ethyl-4-methyl-1H-1,2,3-triazol-5-yl)methyl)thio)-2-(hydroxymethyl)-5-methoxy-4-(4-(3,4,5-trifluorophenyl)-1H-1,2,3-triazol-1-yl)tetrahydro-2H-pyran-3-ol], the results for the IC50 on human Gal-3 (hGal-3) (setting [1]) and on human Gal-1 (hGal-1) were 150 nM and 400 nM, respectively.

In the case of `CO[C@@H]1[C@@H](n2cc(-c3cc(F)c(F)c(F)c3)nn2)[C@@H](O)[C@@H](CO)O[C@H]1S[C@H](c1ccccc1C(C)C)C1(O)CCC(F)(F)CC1` [Example 2.44.105R.I., (2R,3R,4S,5R,6S)-6-(((R)-(4,4-Difluoro-1-hydroxycyclohexyl)(2-isopropylphenyl)methyl)thio)-2-(hydroxymethyl)-5-methoxy-4-(4-(3,4,5-trifluorophenyl)-1H-1,2,3-triazol-1-yl)tetrahydro-2H-pyran-3-ol], the results for the IC50 at human Gal-3 (hGal-3) (setting [1]) and on human Gal-1 (hGal-1) were 320 nM and 150 nM, respectively.

In the case of `OC[C@H]1O[C@@H](S[C@H](c2ncccc2C(F)(F)F)C2(O)CCCCC2)[C@H](O)[C@@H](n2cc(-c3cc(F)c(F)c(F)c3)nn2)[C@H]1O` [Example 2.39.125R., (2S,3R,4S,5R,6R)-2-(((R)-(1-Hydroxycyclohexyl)(3-(trifluoromethyl)pyridin-2-yl)methyl)thio)-6-(hydroxymethyl)-4-(4-(3,4,5-trifluorophenyl)-1H-1,2,3-triazol-1-yl)tetrahydro-2H-pyran-3,5-diol], the IC50 at human Gal-3 (hGal-3) (setting [2]) worked out at 100 nM; on human Gal-1 (hGal-1), 280 nM.

For `CO[C@@H]1[C@@H](n2cc(-c3ccc(F)c(F)c3)nn2)[C@@H](O)[C@@H](CO)O[C@H]1S[C@@H](c1ncccc1C)C1(O)CCC(F)(F)CC1` [Example 16.44.126S.I., (2R,3R,4S,5R,6S)-6-(((S)-(4,4-Difluoro-1-hydroxycyclohexyl)(3-methylpyridin-2-yl)methyl)thio)-4-(4-(3,4-difluorophenyl)-1H-1,2,3-triazol-1-yl)-2-(hydroxymethyl)-5-methoxytetrahydro-2H-pyran-3-ol], the IC50 on human Gal-3 (hGal-3) (Table 14, read-out: IC50 (Gal-3 inhibition)) was 1870 nM; on human Gal-1 (hGal-1), 54200 nM.

With `OC[C@H]1O[C@@H](S[C@H](c2ncccc2C(F)(F)F)C2(O)CCOCC2)[C@H](O)[C@@H](n2cc(-c3cc(F)c(F)c(F)c3)nn2)[C@H]1O` [Example 2.41.125R., (2R,3R,4S,5R,6S)-2-(Hydroxymethyl)-6-(((R)-(4-hydroxytetrahydro-2H-pyran-4-yl)(3-(trifluoromethyl)pyridin-2-yl)methyl)thio)-4-(4-(3,4,5-trifluorophenyl)-1H-1,2,3-triazol-1-yl)tetrahydro-2H-pyran-3,5-diol], the values for the IC50 at human Gal-3 (hGal-3) (setting [2]) and at human Gal-1 (hGal-1) were 30 nM and 130 nM, respectively.

Consider `CC(C)(O)[C@@H](S[C@@H]1O[C@H](CO)[C@H](O)[C@H](n2cc(-c3cc(F)c(F)c(F)c3)nn2)[C@H]1O)c1cccc2ccccc12` [Example 2.31.115S., (2S,3R,4S,5R,6R)-2-(((S)-2-Hydroxy-2-methyl-1-(naphthalen-1-yl)propyl)thio)-6-(hydroxymethyl)-4-(4-(3,4,5-trifluorophenyl)-1H-1,2,3-triazol-1-yl)tetrahydro-2H-pyran-3,5-diol], for which the values for the IC50 on human Gal-3 (hGal-3) (setting [3]) and at human Gal-1 (hGal-1) were 10300 nM and 47900 nM, respectively.

As to `CO[C@@H]1[C@@H](n2cc(-c3cc(F)c(F)c(F)c3)nn2)[C@@H](O)[C@@H](CO)O[C@H]1S[C@H](c1nocc1C)C1(O)CCOCC1` [Example 2.41.120R.I., (2R,3R,4S,5R,6S)-2-(Hydroxymethyl)-6-(((R)-(4-hydroxytetrahydro-2H-pyran-4-yl)(4-methylisoxazol-3-yl)methyl)thio)-5-methoxy-4-(4-(3,4,5-trifluorophenyl)-1H-1,2,3-triazol-1-yl)tetrahydro-2H-pyran-3-ol], the IC50 on human Gal-3 (hGal-3) (setting [1]) was found to be 190 nM; at human Gal-1 (hGal-1), 500 nM.

As to `Cc1ccccc1[C@H](S[C@@H]1O[C@H](CO)[C@H](O)[C@H](n2cc(-c3cc(F)c(F)c(F)c3)nn2)[C@H]1O)C1(O)CCCC1` [Example 2.38.102S., (2S,3R,4S,5R,6R)-2-(((S)-(1-Hydroxycyclopentyl)(o-tolyl)methyl)thio)-6-(hydroxymethyl)-4-(4-(3,4,5-trifluorophenyl)-1H-1,2,3-triazol-1-yl)tetrahydro-2H-pyran-3,5-diol], the IC50 on human Gal-3 (hGal-3) (setting [2]) worked out at 2750 nM; on human Gal-1 (hGal-1), 17000 nM.

With `Cc1conc1C(S[C@@H]1O[C@H](CO)[C@H](O)[C@H](n2cc(-c3cc(F)c(F)c(F)c3)nn2)[C@H]1O)C1(O)CCS(=O)(=O)CC1` (stereo partly drawn) [Example 2.66.120., 4-((((2S,3R,4S,5R,6R)-3,5-Dihydroxy-6-(hydroxymethyl)-4-(4-(3,4,5-trifluorophenyl)-1H-1,2,3-triazol-1-yl)tetrahydro-2H-pyran-2-yl)thio)(4-methylisoxazol-3-yl)methyl)-4-hydroxytetrahydro-2H-thiopyran 1,1-dioxide], the IC50 was 140 nM at human Gal-3 (hGal-3) (setting [3]) and 330 nM at human Gal-1 (hGal-1).
